Experimental data: ChEMBL document CHEMBL4020831, “Discovery of GDC-0853: A Potent, Selective, and Noncovalent Bruton's Tyrosine Kinase Inhibitor in Early Clinical Development” (J Med Chem, 2018)

Columns and labels:
[1] = molecular target: T1, Tyrosine-protein kinase BTK (Homo sapiens, UniProt Q06187); assay: Inhibition of human recombinant C-terminal polyhistidine tagged BTK (1 to 659 residues)-mediated synthetic peptide substrate phosphorylation expressed in baculovirus-infected insect cells
[2] = Clearance in human liver microsomes at 1 uM incubated up to 60 mins by LC-MS/MS method; assay type: ADME, microsome
[3] = molecular target: T1, Tyrosine-protein kinase BTK
Description: Inhibition of BTK in human whole blood-derived CD19+ B cells assessed as suppression of anti-IgM stimulated-CD69 expression preincubated for 1 hr followed by IgM stimulation for 18 hrs by FACS analysis

[4] = physchem; settings: buffer, pH 7.4
[5] = in vitro; settings: dog, MDCK
Description: Efflux ratio of permeability in MDCK1 cells

[6] = Permeability across apical to basolateral in MDCK1 cells; assay type: ADME, cell-based, Canis lupus familiaris; settings: dog, MDCK; read-out: permeability
[7] = molecular target: EGFR (Homo sapiens, UniProt P00533); assay: Inhibition of recombinant human cytoplasmic GST-tagged EGFR expressed in baculovirus at 1 uM by Z'-LYTE assay
[8] = molecular target: T2, TXK (Homo sapiens, UniProt P42681); assay: Inhibition of human full length GST-tagged TXK expressed in baculovirus at 1 uM by Z'-LYTE assay
T2 sequence (P42681 whole entry): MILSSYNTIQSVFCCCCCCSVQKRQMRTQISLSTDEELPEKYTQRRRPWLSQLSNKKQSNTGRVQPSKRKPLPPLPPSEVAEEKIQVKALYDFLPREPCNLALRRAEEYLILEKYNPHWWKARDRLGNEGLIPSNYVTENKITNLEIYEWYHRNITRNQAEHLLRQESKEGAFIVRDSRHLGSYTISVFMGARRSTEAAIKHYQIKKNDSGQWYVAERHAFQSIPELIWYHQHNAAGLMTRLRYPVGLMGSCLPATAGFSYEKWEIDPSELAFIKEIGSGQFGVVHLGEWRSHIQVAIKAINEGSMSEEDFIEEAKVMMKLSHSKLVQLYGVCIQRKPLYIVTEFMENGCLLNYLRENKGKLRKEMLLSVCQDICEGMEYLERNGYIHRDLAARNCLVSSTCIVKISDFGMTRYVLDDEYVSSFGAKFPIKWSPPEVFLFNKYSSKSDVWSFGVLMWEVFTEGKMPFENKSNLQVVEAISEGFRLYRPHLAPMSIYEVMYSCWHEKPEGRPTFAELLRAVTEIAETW

[9] = molecular target: BLK (Homo sapiens, UniProt P51451); assay: Inhibition of recombinant human full length His-tagged BLK expressed in baculovirus at 1 uM by Z'-LYTE assay
[10] = molecular target: ERBB4 (Homo sapiens, UniProt Q15303); assay: Inhibition of recombinant human cytoplasmic GST-tagged ERBB4 expressed in baculovirus at 1 uM by Z'-LYTE assay
[11] = molecular target: T3, TEC (Homo sapiens, UniProt P42680); assay: Inhibition of recombinant human cytoplasmic full length His-tagged TEC expressed in baculovirus at 1 uM by Z'-LYTE assay
T3 sequence (P42680 whole entry): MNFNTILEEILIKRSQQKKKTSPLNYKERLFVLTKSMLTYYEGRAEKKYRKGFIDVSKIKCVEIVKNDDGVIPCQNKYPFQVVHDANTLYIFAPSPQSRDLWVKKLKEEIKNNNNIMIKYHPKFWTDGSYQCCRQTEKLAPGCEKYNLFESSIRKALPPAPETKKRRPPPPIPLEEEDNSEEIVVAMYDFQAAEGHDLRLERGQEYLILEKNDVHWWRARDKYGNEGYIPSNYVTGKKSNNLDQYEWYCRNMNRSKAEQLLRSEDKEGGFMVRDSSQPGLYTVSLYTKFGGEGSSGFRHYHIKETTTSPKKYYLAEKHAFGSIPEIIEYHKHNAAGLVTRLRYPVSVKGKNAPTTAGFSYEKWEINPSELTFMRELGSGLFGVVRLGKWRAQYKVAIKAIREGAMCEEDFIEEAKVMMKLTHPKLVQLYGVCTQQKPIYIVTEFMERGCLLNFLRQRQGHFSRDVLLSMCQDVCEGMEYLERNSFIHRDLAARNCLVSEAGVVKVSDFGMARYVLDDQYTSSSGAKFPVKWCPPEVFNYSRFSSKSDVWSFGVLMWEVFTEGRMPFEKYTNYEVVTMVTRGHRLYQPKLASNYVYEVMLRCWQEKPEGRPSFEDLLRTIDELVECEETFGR

[12] = molecular target: ERBB2 (Homo sapiens, UniProt P04626); assay: Inhibition of recombinant human cytoplasmic His-tagged ERBB2 expressed in baculovirus at 1 uM by Z'-LYTE assay
[13] = molecular target: LTK (Homo sapiens, UniProt P29376); assay: Inhibition of recombinant human cytoplasmic GST-tagged LTK expressed in baculovirus at 1 uM by Z'-LYTE assay
[14] = molecular target: T4, JAK3 (Homo sapiens, UniProt P52333); assay: Inhibition of recombinant human catalytic GST-tagged JAK3 expressed in baculovirus at 1 uM by Z'-LYTE assay
T4 sequence (P52333 whole entry): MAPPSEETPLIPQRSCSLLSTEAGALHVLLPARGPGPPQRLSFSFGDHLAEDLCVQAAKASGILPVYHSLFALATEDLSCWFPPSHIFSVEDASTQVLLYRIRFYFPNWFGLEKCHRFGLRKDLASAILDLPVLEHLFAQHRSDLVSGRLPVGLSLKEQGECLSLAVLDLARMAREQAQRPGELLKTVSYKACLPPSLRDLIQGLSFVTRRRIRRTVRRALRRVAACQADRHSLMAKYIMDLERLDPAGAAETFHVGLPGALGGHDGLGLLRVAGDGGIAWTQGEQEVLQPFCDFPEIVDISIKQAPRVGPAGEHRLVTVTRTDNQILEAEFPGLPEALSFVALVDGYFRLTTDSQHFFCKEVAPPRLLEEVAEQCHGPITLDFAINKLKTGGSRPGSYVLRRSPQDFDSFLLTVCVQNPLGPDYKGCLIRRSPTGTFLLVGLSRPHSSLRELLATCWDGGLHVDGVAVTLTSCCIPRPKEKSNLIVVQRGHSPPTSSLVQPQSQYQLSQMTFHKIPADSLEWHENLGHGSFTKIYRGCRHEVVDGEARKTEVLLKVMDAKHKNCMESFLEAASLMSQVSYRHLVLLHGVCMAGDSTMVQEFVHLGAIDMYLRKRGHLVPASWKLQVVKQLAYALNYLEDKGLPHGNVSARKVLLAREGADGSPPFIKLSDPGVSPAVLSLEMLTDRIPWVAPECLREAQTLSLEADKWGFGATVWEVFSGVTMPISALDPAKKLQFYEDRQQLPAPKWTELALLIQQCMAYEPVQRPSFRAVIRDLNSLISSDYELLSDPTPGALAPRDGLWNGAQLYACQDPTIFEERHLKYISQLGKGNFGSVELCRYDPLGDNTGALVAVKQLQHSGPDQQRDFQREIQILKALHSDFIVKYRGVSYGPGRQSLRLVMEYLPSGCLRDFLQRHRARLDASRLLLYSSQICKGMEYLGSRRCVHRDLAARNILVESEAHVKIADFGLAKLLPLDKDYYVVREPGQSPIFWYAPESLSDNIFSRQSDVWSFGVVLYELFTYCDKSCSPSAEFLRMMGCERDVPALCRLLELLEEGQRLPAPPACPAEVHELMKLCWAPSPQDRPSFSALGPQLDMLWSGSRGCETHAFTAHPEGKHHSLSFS

Sequence of LTK (P29376 whole entry): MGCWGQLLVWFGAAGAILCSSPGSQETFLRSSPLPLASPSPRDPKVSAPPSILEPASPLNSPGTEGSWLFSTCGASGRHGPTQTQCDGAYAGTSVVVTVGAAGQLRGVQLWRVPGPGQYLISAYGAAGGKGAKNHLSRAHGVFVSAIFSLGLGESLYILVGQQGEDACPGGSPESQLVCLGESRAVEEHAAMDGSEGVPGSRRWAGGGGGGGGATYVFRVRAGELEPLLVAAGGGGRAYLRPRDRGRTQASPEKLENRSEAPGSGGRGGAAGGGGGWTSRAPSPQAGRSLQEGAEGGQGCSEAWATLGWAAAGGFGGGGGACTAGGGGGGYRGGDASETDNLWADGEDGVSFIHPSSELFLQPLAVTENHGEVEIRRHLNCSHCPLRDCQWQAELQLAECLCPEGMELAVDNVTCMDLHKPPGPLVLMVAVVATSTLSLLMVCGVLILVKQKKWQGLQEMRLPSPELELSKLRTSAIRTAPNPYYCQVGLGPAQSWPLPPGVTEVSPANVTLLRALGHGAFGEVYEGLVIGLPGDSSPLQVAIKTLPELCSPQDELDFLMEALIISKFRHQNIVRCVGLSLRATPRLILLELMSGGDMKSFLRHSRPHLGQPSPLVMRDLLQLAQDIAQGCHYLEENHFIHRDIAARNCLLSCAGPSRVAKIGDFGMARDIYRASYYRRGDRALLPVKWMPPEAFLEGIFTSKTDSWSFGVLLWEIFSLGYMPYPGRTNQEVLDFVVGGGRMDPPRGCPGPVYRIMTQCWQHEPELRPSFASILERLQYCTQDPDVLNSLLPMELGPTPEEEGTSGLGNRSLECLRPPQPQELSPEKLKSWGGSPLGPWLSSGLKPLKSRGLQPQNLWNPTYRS
Sequence of BLK (P51451 whole entry): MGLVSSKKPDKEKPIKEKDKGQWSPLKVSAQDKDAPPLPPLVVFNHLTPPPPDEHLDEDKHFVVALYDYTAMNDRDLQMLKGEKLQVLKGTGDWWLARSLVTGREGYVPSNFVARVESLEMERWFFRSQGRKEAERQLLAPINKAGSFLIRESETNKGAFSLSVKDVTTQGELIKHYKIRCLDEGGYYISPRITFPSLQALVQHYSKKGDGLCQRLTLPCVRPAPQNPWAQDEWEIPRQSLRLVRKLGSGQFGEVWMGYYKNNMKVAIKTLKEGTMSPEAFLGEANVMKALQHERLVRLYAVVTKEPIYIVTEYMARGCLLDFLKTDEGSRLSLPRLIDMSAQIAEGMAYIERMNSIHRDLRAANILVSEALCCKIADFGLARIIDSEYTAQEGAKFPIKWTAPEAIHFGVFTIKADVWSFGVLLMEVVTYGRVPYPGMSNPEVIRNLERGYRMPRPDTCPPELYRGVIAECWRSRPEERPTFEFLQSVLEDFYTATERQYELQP
Sequence of ERBB4 (Q15303 whole entry): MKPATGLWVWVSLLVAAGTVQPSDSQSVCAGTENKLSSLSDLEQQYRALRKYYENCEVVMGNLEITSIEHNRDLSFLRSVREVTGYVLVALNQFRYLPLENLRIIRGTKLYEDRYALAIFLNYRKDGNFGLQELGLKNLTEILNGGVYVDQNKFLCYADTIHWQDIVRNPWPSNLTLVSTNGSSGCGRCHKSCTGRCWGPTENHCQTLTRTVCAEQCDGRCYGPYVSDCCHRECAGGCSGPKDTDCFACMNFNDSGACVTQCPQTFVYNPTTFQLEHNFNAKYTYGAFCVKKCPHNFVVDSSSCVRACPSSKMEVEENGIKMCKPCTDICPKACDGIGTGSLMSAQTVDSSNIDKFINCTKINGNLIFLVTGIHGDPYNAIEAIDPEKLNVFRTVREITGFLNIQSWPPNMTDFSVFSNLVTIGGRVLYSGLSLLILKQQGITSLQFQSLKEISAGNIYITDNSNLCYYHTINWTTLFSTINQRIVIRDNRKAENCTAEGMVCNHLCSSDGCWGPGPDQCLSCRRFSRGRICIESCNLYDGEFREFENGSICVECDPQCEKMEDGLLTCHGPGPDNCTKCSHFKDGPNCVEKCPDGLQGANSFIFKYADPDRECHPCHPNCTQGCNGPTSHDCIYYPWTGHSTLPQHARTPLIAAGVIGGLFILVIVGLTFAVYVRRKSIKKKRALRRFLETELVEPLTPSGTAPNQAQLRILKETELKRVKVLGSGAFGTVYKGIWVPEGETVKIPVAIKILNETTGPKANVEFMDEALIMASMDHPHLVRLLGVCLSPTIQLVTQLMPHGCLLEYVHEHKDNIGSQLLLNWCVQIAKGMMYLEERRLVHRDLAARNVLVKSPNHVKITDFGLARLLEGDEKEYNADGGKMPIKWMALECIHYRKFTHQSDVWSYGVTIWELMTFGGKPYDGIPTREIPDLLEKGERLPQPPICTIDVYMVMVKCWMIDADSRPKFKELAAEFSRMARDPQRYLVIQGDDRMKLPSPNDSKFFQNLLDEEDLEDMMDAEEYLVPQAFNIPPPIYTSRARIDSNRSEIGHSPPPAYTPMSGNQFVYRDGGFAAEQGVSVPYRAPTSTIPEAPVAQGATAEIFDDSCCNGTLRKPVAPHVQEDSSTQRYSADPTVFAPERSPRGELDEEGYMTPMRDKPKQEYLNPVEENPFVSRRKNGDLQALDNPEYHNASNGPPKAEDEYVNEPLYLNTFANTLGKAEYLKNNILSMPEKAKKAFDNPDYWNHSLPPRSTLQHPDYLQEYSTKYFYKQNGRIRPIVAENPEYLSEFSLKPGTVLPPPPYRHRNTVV
Sequence of ERBB2 (P04626 whole entry): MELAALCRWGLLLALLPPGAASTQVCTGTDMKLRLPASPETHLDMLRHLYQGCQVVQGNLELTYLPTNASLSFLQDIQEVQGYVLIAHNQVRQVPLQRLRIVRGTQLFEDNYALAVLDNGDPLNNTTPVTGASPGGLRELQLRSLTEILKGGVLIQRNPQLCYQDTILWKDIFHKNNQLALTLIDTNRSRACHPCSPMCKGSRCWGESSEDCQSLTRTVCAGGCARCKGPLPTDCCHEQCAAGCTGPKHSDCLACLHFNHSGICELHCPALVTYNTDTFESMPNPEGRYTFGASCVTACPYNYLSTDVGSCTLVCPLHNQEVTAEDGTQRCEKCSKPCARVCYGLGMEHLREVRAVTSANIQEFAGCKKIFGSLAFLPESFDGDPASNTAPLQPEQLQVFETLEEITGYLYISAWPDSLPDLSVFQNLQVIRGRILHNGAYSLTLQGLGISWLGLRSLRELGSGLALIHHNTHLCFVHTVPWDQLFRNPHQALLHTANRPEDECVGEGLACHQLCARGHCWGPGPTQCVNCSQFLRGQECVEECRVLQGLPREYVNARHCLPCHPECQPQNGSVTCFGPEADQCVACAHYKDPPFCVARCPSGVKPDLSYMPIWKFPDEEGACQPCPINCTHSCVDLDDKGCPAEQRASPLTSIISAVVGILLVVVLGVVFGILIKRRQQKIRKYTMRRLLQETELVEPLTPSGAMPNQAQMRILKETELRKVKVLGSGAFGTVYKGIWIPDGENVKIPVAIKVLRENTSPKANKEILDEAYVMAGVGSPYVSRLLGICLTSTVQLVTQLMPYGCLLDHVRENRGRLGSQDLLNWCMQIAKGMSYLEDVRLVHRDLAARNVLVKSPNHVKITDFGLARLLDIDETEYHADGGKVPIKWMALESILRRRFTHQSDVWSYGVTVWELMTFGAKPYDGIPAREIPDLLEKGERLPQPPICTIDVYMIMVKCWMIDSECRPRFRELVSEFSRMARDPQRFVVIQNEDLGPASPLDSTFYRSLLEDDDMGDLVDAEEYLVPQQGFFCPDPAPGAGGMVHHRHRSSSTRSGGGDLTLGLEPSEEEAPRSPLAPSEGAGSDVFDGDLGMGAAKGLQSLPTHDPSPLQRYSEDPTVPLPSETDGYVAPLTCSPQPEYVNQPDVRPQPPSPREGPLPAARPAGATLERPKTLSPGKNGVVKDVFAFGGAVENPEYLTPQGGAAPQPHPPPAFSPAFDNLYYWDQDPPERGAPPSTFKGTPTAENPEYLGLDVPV
T1 sequence (Q06187 whole entry, the tested form may be a part): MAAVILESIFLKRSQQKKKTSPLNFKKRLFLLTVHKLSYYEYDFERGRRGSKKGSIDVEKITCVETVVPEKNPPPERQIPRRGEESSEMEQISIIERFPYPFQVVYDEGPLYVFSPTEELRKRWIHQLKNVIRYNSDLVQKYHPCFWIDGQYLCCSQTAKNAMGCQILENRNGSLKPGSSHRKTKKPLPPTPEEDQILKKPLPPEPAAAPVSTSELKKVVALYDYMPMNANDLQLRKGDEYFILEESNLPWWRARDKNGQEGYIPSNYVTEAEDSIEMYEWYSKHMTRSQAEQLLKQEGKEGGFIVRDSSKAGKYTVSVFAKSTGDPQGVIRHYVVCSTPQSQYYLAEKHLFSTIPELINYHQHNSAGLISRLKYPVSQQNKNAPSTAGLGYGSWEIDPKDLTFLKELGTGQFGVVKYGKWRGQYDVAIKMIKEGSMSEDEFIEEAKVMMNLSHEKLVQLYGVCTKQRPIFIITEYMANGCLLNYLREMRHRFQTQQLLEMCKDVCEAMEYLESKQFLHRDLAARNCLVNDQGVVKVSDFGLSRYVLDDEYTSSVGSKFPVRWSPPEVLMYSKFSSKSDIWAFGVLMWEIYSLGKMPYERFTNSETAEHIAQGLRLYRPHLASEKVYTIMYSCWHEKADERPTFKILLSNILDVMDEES

Row | Structure (SMILES) | Ki [1] [nM] | CLhep predicted at 1 µM [2] [mL/min/kg] | IC50 [3] [nM] | logD [4] | further results
1 | Cn1cc(-c2ccnc(N3CCc4c(sc5c4CC(C)(C)C5)C3=O)c2CO)cc(Nc2ccc(N3CCN(C4COC4)CC3)cn2)c1=O | 0.58 | 13.5 |  |  | 
2 | C[C@@H]1CN(C)CCN1c1ccc(Nc2cc(-c3cc(F)cc(N4CCn5c(cc6c5CCCC6)C4=O)c3CO)cn(C)c2=O)nc1 | 0.37 | 13 | 16.9 | 3.1 | 
3 | Cn1cc(-c2ccnc(-n3ccn4c5c(cc4c3=O)CCCC5)c2CO)cc(Nc2ccc(N3CCN(C4COC4)CC3)cn2)c1=O | 4.2 | 9.2 |  |  | 
4 | Cn1cc(-c2cncc(N3CCn4c(cc5c4CCCC5)C3=O)c2CO)cc(Nc2ccc(N3CCN(C4COC4)CC3)cn2)c1=O | 6.3 | 7.9 | 64.4 | 1.9 | 
5 | Cn1cc(-c2ccnc(N3CCn4c(cc5c4CCCC5)C3=O)c2CO)cc(Nc2ccc(N3CCN(C4COC4)CC3)cn2)c1=O | 1.8 | 8.1 | 54.9 | 2 | 
6 | Cn1cc(-c2ccnc(N3CCn4c(cc5c4CC(C)(C)C5)C3=O)c2CO)cc(Nc2ccc(N3CCN(C4CCOCC4)CC3)cn2)c1=O | 0.45 | 14 | 31.6 |  | 
7 | Cn1cc(-c2ccnc(N3CCn4c(cc5c4CC(C)(C)C5)C3=O)c2CO)cc(Nc2ccc(C3CN(C4COC4)C3)cn2)c1=O | 0.43 | 16 | 23.5 | 3 | efflux ratio [5]: 0.4; Papp A→B [6]: 48.5 ×10⁻⁶ cm/s
8 | Cn1cc(-c2ccnc(N3CCc4c(sc5c4CCCC5)C3=O)c2CO)cc(Nc2ccc(N3CCN(C4COC4)CC3)cn2)c1=O | 5.97 | 13 |  |  | 
9 | CN1CCN(c2ccc(Nc3cc(-c4cc(F)cc(N5CCn6c(cc7c6CCCC7)C5=O)c4CO)cn(C)c3=O)nc2)CC1 |  | 15 |  | 3.1 | 
10 | C[C@H]1CN(c2ccc(Nc3cc(-c4cc(F)cc(N5CCn6c(cc7c6CCCC7)C5=O)c4CO)cn(C)c3=O)nc2)CCN1C | 0.32 | 13 | 27.5 | 2.3 | 
11 | CC(=O)N1CC2(C1)CN(c1ccc(Nc3cc(-c4ccnc(N5CCn6c(cc7c6CC(C)(C)C7)C5=O)c4CO)cn(C)c3=O)nc1)C2 | 3.3 | 10 | 33.4 | 2.5 | 
12 | C[C@H]1CN(C)CCN1c1ccc(Nc2cc(-c3cc(F)cc(N4CCn5c(cc6c5CCCC6)C4=O)c3CO)cn(C)c2=O)nc1 | 0.65 | 14 | 4.6 | 3.2 | 
13 | Cn1cc(-c2nccc(N3CCn4c(cc5c4CCCC5)C3=O)c2CO)cc(Nc2ccc(N3CCN(C4COC4)CC3)cn2)c1=O | 6.9 | 8 | 387 | 1.8 | 
14 | CC#CC(=O)N1CCC[C@H]1c1nc(-c2ccc(C(=O)Nc3ccccn3)cc2)c2c(N)nccn12 [ACALABRUTINIB] |  |  |  |  | inhibition at 1 µM [7]: -1%; inhibition at 1 µM [8]: 31%; inhibition at 1 µM [9]: 16%; inhibition at 1 µM [10]: 93%; inhibition at 1 µM [11]: 71%; inhibition at 1 µM [12]: 36%; inhibition at 1 µM [13]: 2%; inhibition at 1 µM [14]: -3%
15 | C=CC(=O)N1CCC[C@@H](n2nc(-c3ccc(Oc4ccccc4)cc3)c3c(N)ncnc32)C1 [IBRUTINIB] |  |  |  |  | inhibition at 1 µM [8]: 93%; inhibition at 1 µM [9]: 102%; inhibition at 1 µM [10]: 93%; inhibition at 1 µM [11]: 100%; inhibition at 1 µM [12]: 91%; inhibition at 1 µM [13]: 81%; inhibition at 1 µM [14]: 80%
16 | Cn1cc(-c2ccnc(N3CCn4c(cc5c4CC(C)(C)C5)C3=O)c2CO)cc(Nc2ccc(N3CCN(CCC(F)(F)F)CC3)cn2)c1=O | 4 | 16 | 116 | 4.4 | efflux ratio [5]: 0.6; Papp A→B [6]: 14.2 ×10⁻⁶ cm/s
17 | COCCCN1CCN(c2ccc(Nc3cc(-c4ccnc(N5CCn6c(cc7c6CC(C)(C)C7)C5=O)c4CO)cn(C)c3=O)nc2)CC1 | 1 | 12 | 32.2 | 3.3 | efflux ratio [5]: 1.3; Papp A→B [6]: 9 ×10⁻⁶ cm/s
18 | COCCN1CCN(c2ccc(Nc3cc(-c4ccnc(N5CCn6c(cc7c6CC(C)(C)C7)C5=O)c4CO)cn(C)c3=O)nc2)CC1 | 1.2 | 12 | 36.6 | 3.2 | efflux ratio [5]: 1; Papp A→B [6]: 12.5 ×10⁻⁶ cm/s
19 | Cn1cc(-c2ccnc(N3CCn4c5c(c(F)c4C3=O)CCCC5)c2CO)cc(Nc2ccc(N3CCN(C4COC4)CC3)cn2)c1=O | 2.5 | 8.1 |  |  | 
20 | CC(=O)N1CCN(c2ccc(Nc3cc(-c4ccnc(N5CCn6c(cc7c6CC(C)(C)C7)C5=O)c4CO)cn(C)c3=O)nc2)CC1 | 1.8 | 8.8 | 66.5 | 2.9 | efflux ratio [5]: 1.2; Papp A→B [6]: 11.1 ×10⁻⁶ cm/s
21 | C[C@@H]1CN(c2ccc(Nc3cc(-c4cc(F)cc(N5CCn6c(cc7c6CCCC7)C5=O)c4CO)cn(C)c3=O)nc2)CCN1C | 0.43 | 13 | 12.7 | 3.3 | 
22 | Cn1cc(-c2ccnc(N3Cc4cc(C(C)(C)C)sc4C3=O)c2CO)cc(Nc2ccc(N3CCN(C4COC4)CC3)cn2)c1=O | 1 | 10 |  |  | 
23 | C=CC(=O)N1CCC(CNc2ncnc(N)c2-c2ccc(Oc3ccccc3)cc2)CC1 [EVOBRUTINIB] |  |  |  |  | inhibition at 1 µM [7]: 1%; inhibition at 1 µM [8]: 30%; inhibition at 1 µM [9]: 42%; inhibition at 1 µM [10]: 57%; inhibition at 1 µM [11]: 80%; inhibition at 1 µM [12]: 1%; inhibition at 1 µM [13]: -2%; inhibition at 1 µM [14]: 0%
